The experiment has as its target GTPase KRas [G12C] (Homo sapiens, UniProt P01116, G12C). The experiment is described as follows: KRAS G12C-GDP Exchange Assay. The protocol: 1. […] 2. […] The IC50 (median inhibitory concentration) of the compound was obtained by the following non-linear fitting formula: Y=Bottom+(Top−Bottom)/(1+10^((Log IC50−X)*Hill Slope)), and the data were analyzed by Graphpad 6-0 software.

Usually IC50 stands for the concentration at which inhibition is half-maximal. A high value points to a need for much substance.

Sequence of GTPase KRas [G12C] (P01116 whole entry G12C): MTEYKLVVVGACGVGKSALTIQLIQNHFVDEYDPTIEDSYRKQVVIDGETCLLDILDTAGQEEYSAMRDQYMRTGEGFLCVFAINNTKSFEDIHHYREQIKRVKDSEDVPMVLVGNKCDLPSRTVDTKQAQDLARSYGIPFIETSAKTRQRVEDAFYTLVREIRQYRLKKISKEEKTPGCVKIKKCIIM

Compound `C=CC(=O)N1CCN(c2nc(OC[C@@H]3CCCN3C)nc3cc(-c4cccc5cccc(Cl)c45)c(F)cc23)C[C@@H]1CC#N` [US20240109893, Example 394] registered a half-inhibitory concentration (IC50) of 1.44 nM.

The record behind these values is BindingDB's records for patent US20240109893 (Shanghai Kechow Pharma, 2024).
